In patent publication US20230034660A1, “PEPTIDES THAT ENHANCE NMDA RECEPTOR FUNCTION AND USE THEREOF” (University of Pittsburgh - Of the Commonwealth System of …, priority 2019, published 2023):

Target: T1, ZnT1 binding to GluN2A C-terminal peptide sequences (Mus musculus, UniProt Q60738)
T1 construct: made in house; peptides: Fmoc spot synthesis on nitrocellulose
T1 sequence (Q60738 1-503): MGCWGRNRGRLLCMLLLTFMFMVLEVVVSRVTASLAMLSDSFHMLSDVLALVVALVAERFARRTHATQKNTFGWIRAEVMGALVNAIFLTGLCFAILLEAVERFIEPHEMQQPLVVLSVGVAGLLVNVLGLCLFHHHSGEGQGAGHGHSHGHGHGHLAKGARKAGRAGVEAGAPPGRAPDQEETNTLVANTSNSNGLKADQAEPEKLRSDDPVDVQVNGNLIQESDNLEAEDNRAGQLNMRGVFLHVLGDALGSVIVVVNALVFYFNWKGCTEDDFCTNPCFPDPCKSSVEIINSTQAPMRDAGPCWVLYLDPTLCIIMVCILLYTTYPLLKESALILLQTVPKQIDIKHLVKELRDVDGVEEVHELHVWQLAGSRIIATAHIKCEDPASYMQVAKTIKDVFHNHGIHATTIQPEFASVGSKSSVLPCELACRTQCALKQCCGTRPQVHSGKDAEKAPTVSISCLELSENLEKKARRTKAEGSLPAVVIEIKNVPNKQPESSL
Experiment: Peptide spot array repeated in the presence of N2AZ or scN2AZ
Conditions: 100 μM, compared to scN2AZ control
Procedure: FIG. 2: N2AZ reduces ZnT1 binding to GluN2A C-terminal peptide sequences. Quantification of peptide spot arrays of GluN2A C-terminus region (residues 1390-1464) using the same peptide segments as FIG. 1B (Peptides 1-61 correspond to fragments of SEQ ID NO: 21, as listed in Table 1). […] Mean±SEM (n=4). (Inset) Representative peptide spot-array in scN2AZ (top) and N2AZ (bottom).
Far-Western protein-binding affinity assays were performed as previously described (Brittain et al., 2011; Yeh et al., 2017) (Moutal et al., 2017). Peptide spot arrays (15 mers) spanning the proximal C-terminus residues 1390-1464 of mouse GluN2A (Uniprot# P35436) in overlapping 1 aa steps were constructed using the Spots-synthesis method. Standard 9-fluorenylmethoxy carbonyl (Fmoc) chemistry was used to synthesize the peptides and spot them onto nitrocellulose membranes pre-derivatized with a polyethylene glycerol spacer (Intavis). […] Finally, the membrane was incubated in secondary antibody for 45 minutes, washed 3 times for 5 minutes in TBST, and visualized by infrared fluorescence (Li-Cor). […]
To study the effect of ZnT1 on NMDAR modulation, a peptide was designed to disrupt the ZnT1-GluN2A interaction. […] Next, the peptide spot arrays were probed with flag-tagged ZnT1-enriched cell lysates and ZnT1 binding was visualized and quantified with immunofluorescence against the flag tag (FIG. 1A). […]

NDSYLRSSL [Peptide N2AZ]
ZnT1 binding to the spot array in the presence of peptide: significantly reduced
